The text below walks through data of US11168087B2, “Substituted imidazo[1,2-b]pyridazines, substituted imidazo[1,5-b]pyridazines, related compounds, and their use in the treatment of medical disorders” (BIAL—R&D Investments, S.A., priority 2016, dated 2021).

The target of this assay is T1, glucocerebrosidase (Gcase) (Homo sapiens, UniProt P04062).
T1 construct: micellar solution containing 10 nM GCase and 100 nM saposin C
T1 sequence (P04062 40-536): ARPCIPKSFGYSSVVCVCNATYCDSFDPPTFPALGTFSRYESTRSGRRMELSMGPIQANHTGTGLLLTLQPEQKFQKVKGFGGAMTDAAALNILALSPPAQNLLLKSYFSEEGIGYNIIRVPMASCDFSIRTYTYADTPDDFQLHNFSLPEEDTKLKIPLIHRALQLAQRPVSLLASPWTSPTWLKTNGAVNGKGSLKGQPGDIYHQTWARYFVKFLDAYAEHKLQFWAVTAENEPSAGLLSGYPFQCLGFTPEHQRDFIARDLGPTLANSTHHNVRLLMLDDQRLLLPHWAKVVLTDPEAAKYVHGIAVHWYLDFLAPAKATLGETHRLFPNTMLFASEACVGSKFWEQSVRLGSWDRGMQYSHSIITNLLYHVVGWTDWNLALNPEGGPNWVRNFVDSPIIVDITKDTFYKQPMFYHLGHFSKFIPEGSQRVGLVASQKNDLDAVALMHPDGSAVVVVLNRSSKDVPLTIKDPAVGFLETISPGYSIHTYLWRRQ
The assay can be described thus: Glucocerebrosidase (Gcase) activation assay, 4-methylumbelliferyl-beta-D-glucopyranoside substrate, with saposin C. In kind it is biochemical. The conditions noted are these: 0.25 h; for activation at 0.1 µM: read-out: Percent Gcase Activation 0.1 μM Test Compound; for activation at 1 µM: read-out: Percent Gcase Activation 1 μM Test Compound. The procedure: The ability of exemplary compounds to activate glucocerebrosidase (Gcase) was measured.
A 484 μL aliquot of a 1.0 mg/mL solution of phosphatidylserine (PS) (Sigma P7769) in chloroform was evaporated under a stream of nitrogen for 1 hour. The lipid film was dissolved over 4 minutes of vigorous vortexing in 40 mL of 176 mM K2HPO4/50 mM citric acid (pH 4.7) containing 7.5 μL of triton X-100, resulting in a mixed micellar preparation with a composition of 0.32 mM triton and 0.37 mol % PS. 4-Methylumbelliferyl-beta-D-glucopyranoside (ACROS-337025000) was dissolved in the micellar solution to a final concentration of 2 mM for use as the reaction substrate.
Test compounds were diluted to the desired concentrations with dimethylsulfoxide (DMSO) from 10 mM stocks, and 0.41 μL of the DMSO compound mixture was added to 100 μL of micellar solution containing 10 nM GCase and 100 nM saposin C (Enzo ALX-201-262-C050). Pre-incubation was allowed to occur for 30 minutes at room temperature, after which the reaction was initiated by combining 25 μL of substrate solution with 25 μL of compound/GCase/saposin mixture. The reaction proceeded for 15 minutes at room temperature and was stopped by adding 150 μL of 1M glycine, pH 12.5. The endpoint of the reaction was monitored by measuring fluorescence intensity (excitation: 365 nm; emission: 440 nm) on a SpectraMax i3 instrument (Molecular Devices). Test compounds were screened at 1.0 and 0.1 μM final concentration, and subsequent 8-point dose response curves were obtained using 3-fold dilutions from a maximum final concentration of 5 μM.
The symbol “+” indicates less than 5% Gcase activation; the symbol “++” indicates Gcase activation in the range of 5% up to 20%; and the symbol “+++” indicates Gcase activation greater than 20%.

On to `Cc1cc2ncc(C(=O)NC3CCCc4ccccc43)n2nc1Cl` (centres unmarked), for which the activation at 0.1 µM is less than 5% and the activation at 1 µM lay in the range of 5 to 20%.
The like results for `CCC(NC(=O)c1cnc2cc(C)c(Cl)nn12)c1ccccc1` (centres unmarked) were, in that order, less than 5% and 5 to 20%.
The like results for `O=C(Nc1ccc2c(c1)CCC2)c1cnc2ccc(Cl)nn12` were, in that order, less than 5% and 5 to 20%.
As to `O=C(NC1CCCc2ccccc21)c1cnc2ccc(Cl)nn12` (centres unmarked), the activation at 0.1 µM was less than 5% and the activation at 1 µM fell in the range of 5 to 20%.
The like results for `CCC(NC(=O)c1cnc2ccc(Cl)nn12)c1ccccc1` (centres unmarked) were, in that order, less than 5% and less than 5%.
The like results for `CCCCCO[C@H]1CC[C@H](NC(=O)c2cnc3ccc(Cl)nn23)CC1` were, in that order, less than 5% and 5 to 20%.
Take `Cc1cc(C)c2ncc(C(=O)Nc3ccc(-c4cocn4)cc3)n2n1`: the activation at 0.1 µM was less than 5% and the activation at 1 µM is greater than 20%.
Consider `Cc1cc(C)c2ncc(C(=O)Nc3ccc4c(c3)CCC4)n2n1`, for which the activation at 0.1 µM was 5 to 20% and the activation at 1 µM was greater than 20%.
On to `Cc1cc(C)c2ncc(C(=O)NC3CCCc4ccccc43)n2n1` (centres unmarked), for which the activation at 0.1 µM fell in the range of 5 to 20% and the activation at 1 µM is greater than 20%.
The like results for `CCC(NC(=O)c1cnc2c(C)cc(C)nn12)c1ccccc1` (centres unmarked) were, in that order, less than 5% and greater than 20%.
Consider `CCCCCO[C@H]1CC[C@H](NC(=O)c2cnc3c(C)cc(C)nn23)CC1`, for which the activation at 0.1 µM was 5 to 20% and the activation at 1 µM was greater than 20%.
As to `Cc1cc(C)c2ncc(C(=O)NC3(C)CCCc4ccccc43)n2n1` (centres unmarked), the activation at 0.1 µM lay in the range of 5 to 20% and the activation at 1 µM is greater than 20%.
The like results for `C#Cc1ccc(NC(=O)c2cnc3c(C)cc(C)nn23)cc1` were, in that order, 5 to 20% and greater than 20%.
The like results for `CCCCCCOC1CCC(NC(=O)c2cnc3c(C)cc(Cl)nn23)CC1` (centres unmarked) were, in that order, 5 to 20% and greater than 20%.
The like results for `Cc1cc(Cl)nn2c(C(=O)Nc3ccc4c(c3)CCC4)cnc12` were, in that order, 5 to 20% and greater than 20%.
For `C#Cc1ccc(NC(=O)c2cnc3ccc(Cl)nn23)cc1`, the activation at 0.1 µM fell in the range of 5 to 20% and the activation at 1 µM is 5 to 20%.
On to `C#Cc1ccc(NC(=O)c2ncc3c(C)cc(C)nn23)cc1`, for which the activation at 0.1 µM is less than 5% and the activation at 1 µM was greater than 20%.
As for `CCC(NC(=O)c1ncc2c(C)cc(C)nn12)c1ccccc1` (centres unmarked), the activation at 0.1 µM was less than 5% and the activation at 1 µM is greater than 20%.
The like results for `Cc1cc(C)c2cnc(C(=O)NC3CCCc4ccccc43)n2n1` (centres unmarked) were, in that order, 5 to 20% and greater than 20%.
For the compound `Cc1cc(C)c2cnc(C(=O)Nc3ccc4c(c3)CCC4)n2n1`, the activation at 0.1 µM is greater than 20% and the activation at 1 µM was greater than 20%.
For `Cc1cc(C)c2cnc(C(=O)Nc3ccc(-c4cocn4)cc3)n2n1`, the activation at 0.1 µM is less than 5% and the activation at 1 µM was greater than 20%.
For the compound `Cc1cc(C)c2ncc(C(=O)N[C@@H](C)C3CC3)n2n1`, the activation at 0.1 µM was less than 5% and the activation at 1 µM lay in the range of 5 to 20%.
The like results for `Cc1cc(C)c2ncc(C(=O)NC(C)(C)C3CC3)n2n1` were, in that order, 5 to 20% and greater than 20%.
The like results for `Cc1cc(C)c2ncc(C(=O)NC(C3CC3)C(F)(F)F)n2n1` (centres unmarked) were, in that order, less than 5% and greater than 20%.
The like results for `Cc1cc(-c2ccc(F)cc2)nn2c(C(=O)NC(C)(C)C3CC3)cnc12` were, in that order, 5 to 20% and greater than 20%.
Regarding `Cc1cc(-c2ccc(F)cc2)nn2c(C(=O)N[C@@H](C)C3CC3)cnc12`, the activation at 0.1 µM lay within 5 to 20% and the activation at 1 µM was greater than 20%.
The like results for `Cc1cc(-c2cccnc2)nn2c(C(=O)NC(C3CC3)C(F)(F)F)cnc12` (centres unmarked) were, in that order, less than 5% and greater than 20%.
Take `Cc1cc(-c2cccc(F)c2)nn2c(C(=O)NC(C)(C)C3CC3)cnc12`: the activation at 0.1 µM is greater than 20% and the activation at 1 µM is greater than 20%.
For the compound `Cc1cc(-c2ccc(F)cc2C#N)nn2c(C(=O)N[C@@H](C)C3CC3)cnc12`, the activation at 0.1 µM is 5 to 20% and the activation at 1 µM was greater than 20%.
Regarding `Cc1cc(C)c2cnc(C(=O)N[C@@H](C)C3CC3)n2n1`, the activation at 0.1 µM is less than 5% and the activation at 1 µM fell in the range of 5 to 20%.
The like results for `Cc1cc(C)c2cnc(C(=O)NC(C)(C)C3CC3)n2n1` were, in that order, less than 5% and greater than 20%.
As for `Cc1cc(C)c2cnc(C(=O)NC(C3CC3)C(F)(F)F)n2n1` (centres unmarked), the activation at 0.1 µM is less than 5% and the activation at 1 µM was greater than 20%.
The like results for `Cc1cc(-c2ccc(F)cc2)nn2c(C(=O)NC(C)(C)C3CC3)ncc12` were, in that order, greater than 20% and greater than 20%.
The like results for `Cc1cc(-c2ccc(F)cc2)nn2c(C(=O)N[C@@H](C)C3CC3)ncc12` were, in that order, 5 to 20% and greater than 20%.
`Cc1cc(-c2ccc(F)cc2)nn2c(C(=O)NC(C3CC3)C(F)(F)F)ncc12` (centres unmarked): the activation at 0.1 µM was greater than 20% and the activation at 1 µM was greater than 20%.
As to `Cc1cc(-c2cccc(F)c2)nn2c(C(=O)NC(C)(C)C3CC3)ncc12`, the activation at 0.1 µM was greater than 20% and the activation at 1 µM is greater than 20%.
As for `Cc1cc(-c2cccc(F)c2)nn2c(C(=O)NC(C)C(F)(F)F)ncc12` (centres unmarked), the activation at 0.1 µM was in the range of 5 to 20% and the activation at 1 µM is greater than 20%.
Consider `Cc1cc(-c2ccc(F)cc2)nn2c(C(=O)NC(C)C(F)(F)F)ncc12` (centres unmarked), for which the activation at 0.1 µM lay within 5 to 20% and the activation at 1 µM is greater than 20%.
Regarding `Cc1cc(-c2ccc(F)cc2)nn2c(C(=O)N[C@@H](C)C3CC3)nnc12`, the activation at 0.1 µM was less than 5% and the activation at 1 µM is less than 5%.
With `Cc1cc(-c2cccnc2)nc2c(C(=O)NC(C3CC3)C(F)(F)F)nsc12` (centres unmarked), the activation at 0.1 µM was less than 5% and the activation at 1 µM was in the range of 5 to 20%.
Regarding `COc1cccc(-c2cc(C)c3snc(C(=O)N[C@@H](C)C4CC4)c3n2)n1`, the activation at 0.1 µM was less than 5% and the activation at 1 µM lay in the range of 5 to 20%.
In the case of `Cc1cc(-c2ccccn2)nc2c(C(=O)NC(C3CC3)C(F)(F)F)nsc12` (centres unmarked), the activation at 0.1 µM is less than 5% and the activation at 1 µM lay within 5 to 20%.
With `Cc1cc(-c2cccc(C(N)=O)c2)nc2c(C(=O)NC(C3CC3)C(F)(F)F)nsc12` (centres unmarked), the activation at 0.1 µM was less than 5% and the activation at 1 µM fell in the range of 5 to 20%.
The like results for `Cc1cc(-c2cccc3ocnc23)nc2c(C(=O)NC(C3CC3)C(F)(F)F)nsc12` (centres unmarked) were, in that order, less than 5% and 5 to 20%.
The like results for `Cc1cc(C)c2scc(C(=O)NC(C)(C)C3CC3)c2n1` were, in that order, greater than 20% and greater than 20%.
As for `Cc1cc(C)c2scc(C(=O)NC(C3CC3)C(F)(F)F)c2n1` (centres unmarked), the activation at 0.1 µM was greater than 20% and the activation at 1 µM is greater than 20%.
With `Cc1cc(-c2cccnc2)nc2c(C(=O)NC(C3CC3)C(F)(F)F)csc12` (centres unmarked), the activation at 0.1 µM was greater than 20% and the activation at 1 µM is greater than 20%.
Regarding `Cc1cc(-c2cccnc2)nc2c(C(=O)NC(C)C3CC3)csc12` (centres unmarked), the activation at 0.1 µM was greater than 20% and the activation at 1 µM is greater than 20%.
For `Cc1cc(-c2cccc(C(N)=O)c2)nc2c(C(=O)NC(C3CC3)C(F)(F)F)csc12` (centres unmarked), the activation at 0.1 µM is greater than 20% and the activation at 1 µM was greater than 20%.
As for `Cc1cc(-c2cccc(C#N)c2)nn2c(C(=O)NC(C3CC3)C(F)(F)F)cnc12` (centres unmarked), the activation at 0.1 µM was greater than 20% and the activation at 1 µM was greater than 20%.
`Cc1cc(N2CCC(F)(F)C2)nn2c(C(=O)NC(C3CC3)C(F)(F)F)cnc12` (centres unmarked): the activation at 0.1 µM is greater than 20% and the activation at 1 µM was greater than 20%.
In the case of `Cc1cc(-c2occc2C#N)nn2c(C(=O)NC(C3CC3)C(F)(F)F)cnc12` (centres unmarked), the activation at 0.1 µM is greater than 20% and the activation at 1 µM is greater than 20%.
